Earlier results, collected in patent US10478399B2, “Modified release tablet composition comprising mirabegron” (SYNTHON B.V., priority 2017, dated 2019).

Assays:
[1] = neutral to acidic pH
[2] = presence of food in the GI tract

permeability (BCS): low permeability | solubility (BCS): high solubility | effect of food on bioavailability [2]: affected by the presence of food
Compound: Nc1nc(CC(=O)Nc2ccc(CCNC[C@H](O)c3ccccc3)cc2)cs1 [Mirabegron, (R)-2-(2-aminothiazol-4-yl)-4′-[2-[(2-hydroxy-2-phenylethyl)amino]ethyl]acetic acid anilide]
solubility in water [1]: soluble in water between neutral to acidic pH
